Laboratory results published in US20170056381A1, “PYRIDOXAMINE FOR THE TREATMENT OF SICKLE CELL DISEASE, THALASSEMIA AND RELATED BLOOD DISEASES” (NANOMETICS LLC, priority 2014, published 2017).

Assays:
Assay type in all cases: in vivo, mouse
NY1DD mice = experiment: Hypoxia/reoxygenation in NY1DD mice, intravital microscopy of cremaster venules
Experimental: NY1DD mice (2×n=6) were exposed to hypoxia for 16 h (gas mixture=10% O2, 0.5% CO2 and balance N2). One group of NY1 DD was then be given an intraperitoneal (i.p.) dose of pyridoxamine (400 mg/kg), dissolved in phosphate buffered saline (PBS), prior to 3 h reoxygenation in ambient conditions. The second group of NY1 DD mice was put through the same hypoxia/reoxygenation process and given vehicle (PBS) as a negative control. Healthy C57 BL/6J mice were used as healthy controls and were not exposed to hypoxia/reoxygenation stress. At the end of the reoxygenation period, the cremaster muscle was excised for intravital microscopy analysis. Intravital microscopy: Mice were anesthetized i.p. with 10% urethane and 2% α-chloralose in saline (6 ml/kg). The animals were tracheotomized and the left carotid artery cannulated to monitor systemic arterial pressure. The open cremaster muscle was prepared according to the method of Baez. The surface of the open cremaster muscle was suffused with a bicarbonate Ringer's solution of the following millimolar composition: NaCl 135.0, KCl 5.0, NaHCO3 27.0, MgCl2 0.64 and glucose 11.6. pH was adjusted to 7.35-7.4 by continuous bubbling with […]. The osmolarity of the solution, as measured by a Microosmette (Precision Systems, Inc., Sudsbury, MA) was 320 mOsm which is similar to that reported for the mouse plasma. The cremaster muscle preparation was allowed to stabilize for 30 min before the initiation of the experiment. The temperature of the suffusion solution (flow rate, 5-6 ml/min) bathing the cremaster was maintained at 34.5-35° C. and monitored by a telethermometer (YSI Inc., Yellowsprings, Ohio) during the entire experiment. Oxygen tension of the suffusion solution bathing the tissue was determined using a microoxygen electrode (model MI-730; Microelectrodes Inc., Bedford, N.H.). Microscopic observations were carried out using microscope (model BH-2; Olympus Corp., Lake Success, N.Y.) equipped with a television camera (5000 Series; Cohu, Inc., San Diego, Calif.) and a Sony U-matic video recorder (model V05800; Sony Corp., Teaneck, N.J.). Identification of venules and arterioles for observation was determined according to the published procedure. Vessel luminal diameter was measured on-line by image shearing using an image shearing device (model 907; Instruments for Physiology and Medicine, San Diego, Calif.). Red cell velocity (Vrbc) was measured along the vessel centerline using the dual-slit photodiode technique of Wayland and Johnson […]. The dual-slit photo detector was placed over the projected image of the vessel and on-line analysis of the optical signals was performed using a cross-correlator as described by Tompkins et al. (Model 102 BF; instruments for Physiology and Medicine). Vrbc measurements were made using a water immersion ×40 objective and ×6.3 eyepiece. The wall shear rates were calculated from the mean Vrbc (Vmean) and vessel diameter. The centerline Vrbc was converted to the mean red cell velocity across the vessel diameter using a conversion factor of 1.6 (Vrbc/Vmean=1.6) originally described by Baker and Wayland. Shear rates along the wall of microvessel of a given internal diameter (D) were calculated using the relationship: Wall shear rate=8 Vmean/D. Estimates of volumetric flow rates (Q) were made from Vmean and the vessel cross-sectional area (π D^2/4). Rolling leukocytes were defined as those leukocytes that distinctly roll along the endothelial surface. The rolling leukocytes were easily distinguished because of their lower velocity compared with that of leukocytes and red cells in the flow. Rolling leukocyte velocity (μm/s) represented the time required for a rolling leukocyte to traverse a given length of venule. An average of rolling velocities of approximately ten leukocytes per venule was determined by frame-by-frame analysis of video replay. […]

Berkeley mice [1] = experiment: BOLD MRI during hyperoxia challenge (tissue oxygenation, deoxyHb/oxyHb ratio) in Berkeley mice; settings: single oral dose 400 mg/kg, gavage
Experimental: Experimental Design & Methods: Dose Efficacy Experiment: A single oral dose (gavage) of pyridoxamine (400 mg/kg) was administered to BERK mice (n=6) or C57bl WT mice (n=4) and CBF and deoxyHb levels measured (see below for Measurement Parameters) before treatment and 2 h, 24 h, 72 h, 5 days and 9 days after treatment. Measurement Parameters: Each animal was assessed for several parameters by magnetic resonance imaging (MRI) methods on a 9.4 T Agilent MRI system. The primary MRI methods included brain and muscle perfusion, water diffusivity and oxygenation. Data acquisition was by multi-shot (8) Echo Planer Imaging (msEPI) (segmented and interleaved). Perfusion data were acquired using amultislice FAIR-Quipps approach, and blood oxygenation was determined from T2w msEPI (BOLD). Inflammation was inferred from the mean diffusivity of water calculated from a Diffusion Tensor Imaging (DTI) measurement which estimates the apparent diffusion coefficient of water (ADC). Transverse relaxation (T2) will be assessed for tissue free-water content using 30 echos (TE: 1.3 ms-240 ms) using multiecho-spin echo approaches. Longitudinal relaxation (T1) is assessed using EPI-inversion recovery (T1: 0.1 s-7 s, TR 8 s). Tissue Oxygenation: Bold Oxygen Level Dependent (BOLD) measurements were made during a hyperoxia challenge. MRI begins while animals are exposed to 20% O2/80% N2 (6 min) and imaging continues while the inspired gas is switched to 100% O2, maintained for 6 minutes, then returned to normal room air levels. […] Perfusion measurements: Quantitative perfusion measurements (FAIR-Quipps) employ a volume coil for arterial labeling, and surface coil for signal measurement, and a TI of 1200 ms. […]
Data Analysis & Interpretation: All images are co-registered to a template using FSL tools (FMRIB Software library, Oxford, UK). […] Perfusion, BOLD activation ratios and metabolite ratios were calculated using MATLAB (Mathworks, Natick, Mass.). Parameter maps were calculated using a non-linear least squares in Matlab, or using the FMRIB FSL-based Diffusion Toolbox (DTIFIT). […]

Berkeley mice [2] = experiment: MRI perfusion (FAIR-Quipps) cerebral blood flow in Berkeley mice
Experimental: Experimental Design & Methods: Dose Efficacy Experiment: A single oral dose (gavage) of pyridoxamine (400 mg/kg) was administered to BERK mice (n=6) or C57bl WT mice (n=4) and CBF and deoxyHb levels measured (see below for Measurement Parameters) before treatment and 2 h, 24 h, 72 h, 5 days and 9 days after treatment. Measurement Parameters: Each animal was assessed for several parameters by magnetic resonance imaging (MRI) methods on a 9.4 T Agilent MRI system. The primary MRI methods included brain and muscle perfusion, water diffusivity and oxygenation. Data acquisition was by multi-shot (8) Echo Planer Imaging (msEPI) (segmented and interleaved). Perfusion data were acquired using amultislice FAIR-Quipps approach, and blood oxygenation was determined from T2w msEPI (BOLD). Inflammation was inferred from the mean diffusivity of water calculated from a Diffusion Tensor Imaging (DTI) measurement which estimates the apparent diffusion coefficient of water (ADC). Transverse relaxation (T2) will be assessed for tissue free-water content using 30 echos (TE: 1.3 ms-240 ms) using multiecho-spin echo approaches. Longitudinal relaxation (T1) is assessed using EPI-inversion recovery (T1: 0.1 s-7 s, TR 8 s). Tissue Oxygenation: Bold Oxygen Level Dependent (BOLD) measurements were made during a hyperoxia challenge. MRI begins while animals are exposed to 20% O2/80% N2 (6 min) and imaging continues while the inspired gas is switched to 100% O2, maintained for 6 minutes, then returned to normal room air levels. BOLD image signal intensity (echo-planer T2* weighted imaging) is inversely sensitive to deoxyHb levels, such that an increase in deoxyHb/oxyHb ratio causes a decrease in BOLD signal, while a decrease in this ratio causes an increase in BOLD signal intensity. Perfusion measurements: Quantitative perfusion measurements (FAIR-Quipps) employ a volume coil for arterial labeling, and surface coil for signal measurement, and a TI of 1200 ms. Water diffusion coefficient: DTI data were collected using a 7 direction assessment, from which both the mean diffusivity (DTI-MD) and fractional anisotropy (DTI-FA) were obtained. DTI-FA provides a measure of white matter integrity and DTI-MD, along with tissue T2 provides a measure of tissue inflammation.
Data Analysis & Interpretation: All images are co-registered to a template using FSL tools (FMRIB Software library, Oxford, UK). The template was constructed of an averaged high-resolution averaged T2-weighted image from 3 co-registered BERK mice, or 3 co-registered C57bl mice. Regions of interest (ROI's) were drawn from standard atlases (Paxonis) on the template, and include white matter (CC and External Caudate), gray matter (Somatosensory, Motor, Frontal, Parietal) Cortex, hippocampus, basal ganglia, cingulate, and others) and cranial muscle from the anterior region of the head. Image data was converted from native format to NIFTI format, intensity flattened, phase corrected, orientation corrected, and registered to the template. Perfusion, BOLD activation ratios and metabolite ratios were calculated using MATLAB (Mathworks, Natick, Mass.). Parameter maps were calculated using a non-linear least squares in Matlab, or using the FMRIB FSL-based Diffusion Toolbox (DTIFIT). Registration was accomplished using the FSL-FLIRT routine. […]

Berkeley mice [3] = experiment: Hypoxia/reoxygenation in Berkeley mice, intravital microscopy; settings: single i.p. dose; Berkeley mice exposed to hypoxic stress
[4] = single i.p. dose 400 mg/kg, 16 h hypoxia, 3 h reoxygenation, cremaster venules

Structure (SMILES): Cc1ncc(CO)c(CN)c1O [pyridoxamine]
- change in venule diameter (NY1DD mice; single i.p. dose 400 mg/kg, 16 h hypoxia, 3 h reoxygenation, 400 mg/kg): minimal change
- decrease in leukocyte adhesion (NY1DD mice; [4]): 84%
- decrease in leukocyte emigration (NY1DD mice; [4]): 95%
- decrease in rolling leukocytes (NY1DD mice; [4]): 24%
- increase in red blood cell flow velocity (Vrbc) (NY1DD mice; [4]): 42%
- increase in wall shear rate (NY1DD mice; [4]): 92%
- hypoxia/reoxygenation induced endothelial activation (NY1DD mice; single i.p. dose, NY1DD mice exposed to hypoxic stress): ameliorated
- deoxygenated hemoglobin/oxygenated hemoglobin ratio in brain after treatment (Berkeley mice [1]; 72 h after treatment): significant decrease
- time of maximum effect on brain deoxyHb/oxyHb ratio (BOLD) (Berkeley mice [1]; brain): 72 h
- time of maximal effect on cranial muscle BOLD signal (oxyhemoglobin increase) (Berkeley mice [1]; cranial muscle): 72 h
- time of maximum effect on cerebral blood flow (CBF) (Berkeley mice [2]; single oral dose 400 mg/kg, gavage): 72 h
- effect on cerebral blood flow (CBF) (Berkeley mice [2]; single oral dose 400 mg/kg, gavage, versus C57 wild type): normalized the CBF to near wild type
- time of maximum response of brain perfusion (Berkeley mice [2]; single oral dose 100-400 mg/kg): 72 h
- effect on perfusion in the brain (Berkeley mice [2]; single oral dose 100-400 mg/kg, versus wild type C57BL mice): normalized perfusion in the brain of Berkeley mice to wild type values
- duration of sustained effects of treatment (Berkeley mice [2]; transgenic mouse models of SCD, single dose): up to 9 days
- hypoxia/reoxygenation induced endothelial activation (Berkeley mice [3]): ameliorated
